Values of other authors as cited in publication PMC5473336 (Journal of medicinal chemistry, 2016).
Entries after “also recorded” stand apart in the source; their conditions may differ. Read-outs that look alike come from different tables or passages of the source.

Tests used:
RAD51 [1] = details: cited from earlier work
human cells = details: following irradiation; cited from earlier work
RAD51 [2] = details: cited from earlier work; remark: listed apart in the source

Compound: C[C@@]12CCC(=O)c3coc(c31)C(=O)c1cc3c(cc12)C(=O)C=CC3=O [halenaquinone]
- RAD51 D-loop activity (in words) (RAD51 [1]): specifically inhibit D-loop formation
- RAD51 D-loop activity (in words) (RAD51 [1]; listed as Halenaquinone): strongly inhibit
- RAD51 foci at DSB sites in cells (in words) (human cells): inhibit the formation of RAD51 foci; also recorded: reduces the subnuclear appearance of RAD51 foci
- RAD51 ssDNA binding activity (in words) (RAD51 [2]): sparing
